From patent publication US12564622B2, “Preventing cytokine release syndrome” (priority 2017, dated 2026)
“And” between values parts separate entries of the source, which are not always exact repeats. Identical values can stand only once. “Also recorded” adds a separate entry of the source.

Experiments:
[1] = system: polymicrobial peritoneal sepsis induced by CLP; test: Cecal ligation and puncture (CLP) sepsis; format: in vivo, mouse (C57BL/6); settings: for circulating pro-inflammatory cytokines after CLP: pre-treatment
Method: (§1) Cecal ligation and puncture (CLP) was performed as described elsewhere (Rittirsch et al., 2009 Nature Protocols, 4:31-6). Briefly, six-to-eight week old female C57BL/6 mice were anesthetized and following abdominal incision, the cecum was ligated at about 14 the distance from the luminal entry to its tip. The ligated cecum was punctured through and through with a 22 G needle at ½ and ¾ the distance from the luminal entry to its tip. A small amount of the cecal content was gently pushed out of the four openings into the peritoneum. Subsequently, the abdominal muscles were sutured and the skin was closed with two staples. Five hundred microliters of saline were immediately injected subcutaneously to the mice. For the groups treated with antibiotics, imipenem (Sigma) was injected subcutaneously at 25 mg/kg starting from 20 hours after CLP, with a schedule of twice a day on day one and once a day thereafter for 10 days. Human ANP (Sigma) was dissolved in saline, loaded in mini-osmotic pumps (ALZET) with a release rate of 12 μg/day and implanted subcutaneously in the back of mice 12 hours before the CLP, with pumps loaded with saline serving as controls. Metyrosine was freshly dissolved in PBS and injected IP at 60 mg/kg/day for three days before the CLP. Twenty minutes before the CLP, metyrosine was injected at 60 mg/kg IP into the right side. The control groups were injected with PBS. For the following 4 days, metyrosine was injected at 30 mg/kg/day IP into the right side. Hydration of mice was supported by daily subcutaneous injection of 0.5 ml saline.
as §1, with “CLP” for “Cecal ligation and puncture (CLP)”, “(see, e.g., Rittirsch” for “(Rittirsch”, “2008 Rev Immunol 8:776-787).” for “2009 Nature Protocols, 4:31-6).”, “6-8 weeks” for “six-to-eight week”, “¼” for “14”, “days.” for “days. Human ANP (Sigma) was dissolved in saline, loaded in mini-osmotic pumps (ALZET) with a release rate of 12 μg/day and implanted subcutaneously in the back of mice 12 hours before the CLP, with pumps loaded with saline serving as controls.”

[2] = system: mouse peritoneal macrophages; test: Peritoneal macrophage catecholamine and cytokine production; format: cell-based; settings: for cytokine release: ANP 5 μg/ml or metyrosine 2 mM
Method: Isolation of elicited macrophages from mouse peritoneum followed previously described procedures with minor modifications (Zhang et al., “The isolation and characterization of murine macrophages,” Curr Protoc Immunol Chapter 14, Unit 14.1 (November, 2008)). Four days prior to the harvest, 1 ml of 3% Brewer's thioglycollate medium (BD) was injected IP in female 2-3 months old BALB/c mice. Mice were euthanized by cervical dislocation and the skin of the belly was cut open without penetrating the muscle layer. Using a syringe with a 22 G needle, 5 ml of cold PBS containing 5 mM EDTA was injected carefully into the peritoneal cavity. After massaging gently for 1-2 minutes, a 1-ml syringe without needle was used to extract the peritoneal contents containing residential macrophages. Cells were centrifuged at 400 g for 10 minutes at 4° C., resuspended in DMEM/F12 medium supplemented with 1% FBS and antibiotics and distributed in 48-well plates at a concentration of 0.5×10^6 cells/well. After incubation at 37° C. for 2 hours, cells were rinsed three times with 0.5 ml media and then 250 μl of media was added to each well. […] For stimulation, the cells were incubated for 24 hours with LPS at 50 μg/ml. […] To stimulate macrophages, they were exposed to epinephrine at 15 ng/ml for 24 hours at 37° C. After the incubation, supernatants were collected from the wells and mixed with 5 mM EDTA and 4 mM sodium metabisulfite for preservation of catecholamines and stored at −80° C. […] Thus, any epinephrine identified in the media must have been secreted by cells in the last 24 hours prior to harvesting the media.
Isolation of elicited macrophages from mouse peritoneum followed previously described procedures with minor modifications66. Four days prior to the harvest, 1 ml of 3% Brewer's thioglycollate medium (BD) was injected IP in female 2-3 months old BALB/c mice or 4-6 weeks old conditional TH knockout mice. Mice were euthanized by cervical dislocation and the skin of the belly was cut open without penetrating the muscle layer. Using a syringe with a 25 G needle, 5 ml of cold PBS containing 5 mM EDTA was injected carefully into the peritoneal cavity. After massaging gently for 1-2 minutes, a 1-ml syringe without needle was used to extract the peritoneal contents containing residential macrophages. Cells were centrifuged at 400 g for 10 minutes at 4° C., resuspended in DMEM/F12 medium supplemented with 1% FBS and antibiotics and distributed in 48-well plates at a concentration of 0.5×10^6 cells/well. After incubation at 37° C. for 2 hours, cells were rinsed three times with 0.5 ml media and then 250 μl of media was added to each well. […] For stimulation, the cells were incubated for 24 hours with LPS at 50 μg/ml. […] To stimulate macrophages, they were exposed to epinephrine at 15 ng/ml for 24 hours at 37° C. After the incubation, supernatants were collected from the wells and mixed with 5 mM EDTA and 4 mM sodium metabisulfite for preservation of catecholamines and stored at −80° C. […] Thus, any epinephrine identified in the media must have been secreted by cells in the last 24 hours prior to harvesting the media.

[3] = LPS 50 μg/ml, 24 hours, pre-incubation 10 minutes with ANP 5 μg/ml or metyrosine 2 mM
[4] = LPS, epinephrine or the combination of both, metyrosine 2 mM

| Compound | circulating pro-inflammatory cytokines after CLP ([1]; 24 hours after CLP) | survival after CLP ([1]; ANP by osmotic pump implanted 12 hours before CLP) | pathologic examination (peritoneum, lungs, liver) ([1]; ANP pre-treated, 24 hours after CLP) | cytokine release ([2]; LPS 50 μg/ml, 24 hours) | catecholamine production [2, 3] | catecholamine production ([2]; epinephrine 15 ng/ml stimulated, ANP pre-treatment) | catecholamine and cytokine (IL-6, TNF-α, MIP-2, KC) production ([2]; epinephrine alone 15 ng/ml) | amplified inflammatory response ([2]; epinephrine in combination with LPS) | mice surviving CLP (acute phase) ([1]; metyrosine IP pre-treatment) | fraction of mice surviving CLP ([1]; metyrosine pre-treatment plus imipenem from 20 hours after CLP) | catecholamines produced [2, 4] | cytokines released [2, 4] |
| --- | --- | --- | --- | --- | --- | --- | --- | --- | --- | --- | --- | --- |
| CC[C@H](C)[C@@H]1NC(=O)[C@H](CCCNC(=N)N)NC(=O)[C@H](CC(=O)O)NC(=O)[C@H](CCSC)NC(=O)[C@H](CCCNC(=N)N)NC(=O)CNC(=O)CNC(=O)[C@H](Cc2ccccc2)NC(=O)[C@@H](NC(=O)[C@H](CO)NC(=O)[C@H](CO)NC(=O)[C@H](CCCNC(=N)N)NC(=O)[C@H](CCCNC(=N)N)NC(=O)[C@H](CC(C)C)NC(=O)[C@@H](N)CO)CSSC[C@@H](C(=O)N[C@@H](CC(N)=O)C(=O)N[C@@H](CO)C(=O)N[C@@H](Cc2ccccc2)C(=O)N[C@@H](CCCNC(=N)N)C(=O)N[C@@H](Cc2ccc(O)cc2)C(=O)O)NC(=O)CNC(=O)[C@H](CC(C)C)NC(=O)CNC(=O)[C@H](CO)NC(=O)[C@H](CCC(N)=O)NC(=O)[C@H](C)NC(=O)CNC1=O [ANP, atrial natriuretic peptide] | greatly reduced | almost half of the animals survived the acute phase | less peritoneal inflammation, pulmonary septal thickening, and hepatic inflammation; also recorded: lower or absent pulmonary septal thickening and vacuolization | reduction in the cytokine levels | reduce the production of all three major catecholamines; also recorded: suppress the increased production; also recorded: effectively blocked | inhibited this production | also suppressed | inhibited | – | – | – | – |
| C[C@](N)(Cc1ccc(O)cc1)C(=O)O [metyrosine, α-methyl-tyrosine] | substantially reduced | – | – | similarly inhibited | greatly reduced; also recorded: effectively blocked | – | – | – | 20% and 22% | > ⅔ | greatly reduced | diminished |
